Where two headings read alike, the source gives them in different places.
What was measured:
[1] = system: 231-BR cells; assay: MTT proliferation / colonization assay of 231-BR cells; type: cell-based, human
Procedure: The prepared cells are plated at a density of 15,000 cells/well in a 96 well plate and incubated for 3 hours to permit attachment. Cells are then washed with PBS, and media containing either 0.1% or 1% FBS is added to the cells. […] After a 72-hour incubation, 0.5 mg/mL MTT (Sigma, St. Louis, Mo.) is added and plates are incubated for 2 hours. Media is then aspirated, and MTT dissolved in DMSO for 30 minutes, after which the absorbance is read at a wavelength of 570 nm. […] Data in Table 4 is shown as percent of colonies formed±standard deviation compared to untreated controls. Results are representative of three independent experiments in quintuplicate. Analysis of variance (ANOVA) is used to assess in vitro functions of vehicle treated versus vorinostat treated cells. P values can be two-tailed. Tests can be performed using GraphPad InStat version 3.0 software.

[2] = system: acetyl Histone H3, acetyl histone H4, p21; assay: Western blot of 231-BR cell lysates after HDI treatment; type: cell-based, human; conditions: 231-BR cells; depsipeptide 10 ng/mL or SAHA 5 μM; 0, 8, 24, 48 hours
Procedure: All cell lines are deemed free of mycoplasma and human pathogens and test negative in mouse antibody production (MAP) tests. […] Drug solution is added once at the beginning and left on the cells for the indicated duration (0, 8, 24, and 48 hours). Controls are performed in the same way with the same amount of vehicle solution for each drug, but without the drug. The vehicle can be DMSO. Cells are lysed according to standard procedures and Western blotting is performed. Primary antibodies specific to the targeted proteins are used including antibodies specific to acetyl Histone H3, acetyl histone H4, p21, and α-tubulin. Horseradish peroxidase-conjugated secondary antibodies purchased from Santa Cruz Biotechnology (Santa Cruz, Calif.) are used at dilutions of 1:5000. Proteins are visualized using enhanced chemilluminescence (Cell Signaling) and autoradiography. […] As histones H3 and H4 become hyperacetylated, protein levels of the cyclin-dependent kinase inhibitor p21 increase. Those changes indicate HDAC inhibition.

[3] = system: 231-BR cells; assay: 48-well Boyden chamber chemotaxis (motility) assay; type: cell-based, human; conditions: 24 hours drug treatment, 4 hours migration, SAHA 5 μM, depsipeptide 10 ng/mL, VPA 10 mM, TSA 100 ng/mL, ± standard deviation; for Motility Data, mean number of cells that migrate per well, 0.5% FCS: 0.5% FCS chemoattractant; for Motility Data, mean number of cells that migrate per well, Control: Control (no FCS chemoattractant)
Procedure: 231-BR Cells are used as described in Example 2. A 48-well Boyden chemotaxis chamber is used. Polycarbonate PVP-free Nucleopore filters (8 μm pore size) are coated with 0.01% collagen (BD Bioscience). […] Drug concentrations used are as described in Example 2. 231-BR cells, after 24 hours of vorinostat, other drug treatment, or control are added to the top chamber in DMEM with 1 mg/ml BSA at a concentration of 2×10^6 cells/ml. Chambers are incubated for 4 hours in a 37° C. incubator with 5% CO2. After chambers are disassembled, filters are fixed and stained with reagents from a Diff-Quik® Kit (Fischer Scientific). Cells that migrate through the Boyden chamber are counted using a light microscope. Representative areas are counted to determine the number of cells that have migrated for each well. Data in Table 5 are shown as mean number of cells±standard deviation that migrate per well. Analysis of variance (ANOVA) is used to assess in vitro functions of vehicle treated versus vorinostat treated cells. P values can be two-tailed. Tests can be performed using GraphPad InStat version 3.0 software.

[4] = system: MDA-MB-231-BR cells brain metastases; assay: Brain metastasis model, intracardiac MDA-MB-231-BR cells in nude mice (Example 5); type: in vivo, Balb/c nude mice; design: key to Mean Large Mets: mean no. of large metastases (>50 microns^2) per mouse; key to Mean Micromets: mean no. of metastases in 10 step sections of one hemisphere; conditions: for Mean Large Mets: large >50 microns^2
Procedure: Cells are prepared as described in Example 2 with additional preparation as follows. The retroviral vector pLEGFP-C1 (BD Biosciences, San Jose, Calif.) is transfected into murine fibroblast PT67 packaging cells using Effectene reagent according to the manufacturer's protocol (Qiagen, Germantown, Md.). After 24 hours, enhanced green fluorescent protein (EGFP)-expressing cells are selected in the presence of 1 mg/mL G418 (Invitrogen, Carlsbad, Calif.), and colonies are expanded. Virus is harvested and filtered through a 0.45 um Millex-HA syringe-driven filter (Millipore, Billerica, Mass.) and 231-BR cells are infected with retrovirus for 6 hours. The following day, 231-BR cells are selected in the presence of 0.8 mg/mL G418, and EGFP expression in 95-99% of the cells is confirmed by fluorescent microscopy.
All animal experiments are conducted under an approved Animal Use Agreement with the NCI. Under isoflurane anesthesia, 20 female Balb/c nude mice (Charles River Laboratories, Frederick, Md.) 5-7 weeks old are inoculated with 500,000 (Experiment 1) or 100,000 (Experiment 2) MDA-MB-231-BR cells in 0.1 mL PBS in the left ventricle of the heart. Mice are monitored daily for signs of ill health. Three days after tumor cell inoculation mice are randomized to treatment groups and treatment is started. […] After 21 days of treatment, mice are euthanized under CO2 anesthesia and brains are excised for imaging. EGFP is detected in whole brains by the Maestro 420 In Vivo Spectral Imaging System (Cambridge Research and Instrumentation, Woburn, Mass.), using software (e.g., Nuance Technology, Burlington, Mass.) to distinguish or unmix images of fluorescence from multiple sources. After imaging, mouse brains are bisected along the sagittal plane and the right hemisphere of the brain is fixed in 4% paraformaldehyde for 24-48 hours at 4° C., then transferred to 20% sucrose overnight at 4° C. and frozen (for EGFP detection/histology). The left hemisphere is forallin-fixed and paraffin embedded for immunohistochemistry. Ten micron brain sections are serially cut and processed for either EGFP microscopy or histology. To detect EGFP, slides are dried at room temperature and 25 uL Vectashield HardSet Mounting Media with DAPI was added (Vector Laboratories, Burlingame, Calif.). Images are captured on a Zeiss Axioskop 2 microscope (Thornwood, N.Y.) using OpenLab software (Improvision, Lexington, Mass.). For staining with hematoxylin and eosin, a standard protocol is followed. Ten serial sections every 300 microns through the brain are analyzed using a 5× objective on a Zeiss microscope, containing an ocular grid with squares of 0.8 mm^2.
Every micro- or large (>50 microns^2) metastasis in each section is tabulated. Data are representative of two experiments conducted. Wilcoxon rank sum test is used to compare the number of total metastases and the number of large metastases in vehicle treated versus vorinostat treated mice. Tests can be performed using GraphPad InStat version 3.0 software. “Mean Micromets” in Tables 6 and 7 refer to the mean number of metastases counted in 10 step sections from one hemisphere of the brain. “Mean Large Mets” in Tables 6 and 7 refer to the size of metastases determined by a 16 mm^2 ocular grid. Large metastases are greater than 50 microns^2.

[5] = mouse, in vivo
Procedure: All animal experiments are conducted under an approved Animal Use Agreement with the NCI. Under isoflurane anesthesia, 20 female Balb/c nude mice (Charles River Laboratories, Frederick, Md.) 5-7 weeks old are inoculated with 500,000 (Experiment 1) or 100,000 (Experiment 2) MDA-MB-231-BR cells in 0.1 mL PBS in the left ventricle of the heart. Mice are monitored daily for signs of ill health. Three days after tumor cell inoculation mice are randomized to treatment groups and treatment is started. […]. After 21 days of treatment, mice are euthanized under CO2 anesthesia and brains are excised for imaging. EGFP is detected in whole brains by the Maestro 420 In Vivo Spectral Imaging System (Cambridge Research and Instrumentation, Woburn, Mass.), using software (e.g., Nuance Technology, Burlington, Mass.) to distinguish or unmix images of fluorescence from multiple sources. […] Ten serial sections every 300 microns through the brain are analyzed using a 5× objective on a Zeiss microscope, containing an ocular grid with squares of 0.8 mm^2.
. […] “Mean Micromets” in Tables 6 and 7 refer to the mean number of metastases counted in 10 step sections from one hemisphere of the brain. “Mean Large Mets” in Tables 6 and 7 refer to the size of metastases determined by a 16 mm^2 ocular grid. […]

[6] = system: MDA-MB-231BR cells brain metastases; assay: Brain metastasis model, timing of SAHA administration (Example 6); type: in vivo, nude mice; conditions: for Large Metastases, Mean number per section: vehicle 7.65; for Micrometastases, Mean number per section: vehicle 170
Procedure: As described in Example 5, 175,000 MDA-MB-231BR cells in 0.1 mL PBS are injected into the left cardiac ventricle of the heart of nude mice. […] On day [X], mice are euthanized under CO2 anesthesia and brains are excised for imaging as described in Example 5.
Micro- and large (>50 microns^2) metastases are tabulated. The data set forth in Table 8 are representative of two experiments.

[7] = 231-BR cells, 72-hour incubation; SAHA 5 μM, depsipeptide 10 ng/mL, VPA 10 mM, TSA 100 ng/mL; ± standard deviation
[8] = 150 mg/kg SAHA IP once daily starting on day 3 post-injection until day 21
[9] = 150 mg/kg SAHA IP once daily starting on day 7 post-injection until day 21
[10] = 150 mg/kg SAHA IP once daily starting on day 14 post-injection until day 21

SMILES: C/C=C1\NC(=O)[C@H]2CSSCC/C=C/[C@H](CC(=O)N[C@H](C(C)C)C(=O)N2)OC(=O)[C@H](C(C)C)NC1=O [Depsipeptide]
- Colonization Data, % Control [1, 7]: 10 ± 2.5 % Control
- dose at which noticeable inhibition occurs ([1]; 231BR cells): ≥ 0.001 µg/mL
- IC50 ([1]; Homo sapiens, read-out: IC50 (growth inhibition, absorbance at 570 nm)): 1.5 mg/L
- acetylation of histones H3 and H4 (Western blot) [2]: hyperacetylated
- protein levels of the cyclin-dependent kinase inhibitor p21 (Western blot) [2]: increase
- Motility Data, mean number of cells that migrate per well, 0.5% FCS [3]: 678 ± 33
- Motility Data, mean number of cells that migrate per well, Control [3]: 129 ± 23

SMILES: O=C(CCCCCCC(=O)Nc1ccccc1)NO [SAHA, N-Hydroxy-N′-phenyloctanediamide]
- Colonization Data, % Control [1, 7]: 47 ± 1.9 % Control
- IC50 ([1]; Homo sapiens; read-out: IC50 (growth inhibition, absorbance at 570 nm)): 12.6 µM
- acetylation of histones H3 and H4 (Western blot) [2]: hyperacetylated
- Mean Micromets ([4]; Experiment 1 (500,000 cells), 100 mg/kg SAHA IP once daily 21 days, vehicle 205.5): 140.4
- Mean Micromets ([4]; Experiment 1 (500,000 cells), 150 mg/kg SAHA IP once daily 21 days (lowered from 200 mg/kg), vehicle 205.5): 151.8
- Mean Large Mets ([4]; Experiment 1, 100 mg/kg SAHA IP once daily 21 days, vehicle 6.8): 2.9
- Mean Large Mets ([4]; Experiment 1, 150 mg/kg SAHA IP once daily 21 days (lowered from 200 mg/kg), vehicle 6.8): 3.5
- Mean Micromets ([4]; Experiment 2 (100,000 cells), 100 mg/kg SAHA IP once daily 21 days, vehicle 72.5): 78.3
- Mean Micromets ([4]; Experiment 2 (100,000 cells), 150 mg/kg SAHA IP once daily 21 days, vehicle 72.5): 66.6
- Mean Large Mets ([4]; Experiment 2, 100 mg/kg SAHA IP once daily 21 days, vehicle 3.3): 4.4
- Mean Large Mets ([4]; Experiment 2, 150 mg/kg SAHA IP once daily 21 days, vehicle 3.3): 1.5
- number of large (>50 micron^2) brain metastases, in words ([4]; in vivo, mice, IP SAHA vs vehicle): reduces the number
- toxicity of the higher dosage [5]: toxicity
- Large Metastases, Mean number per section [6, 8]: 2.89
- Micrometastases, Mean number per section [6, 8]: 122
- Large Metastases, Mean number per section [6, 9]: 4.94
- Micrometastases, Mean number per section [6, 9]: 151
- Large Metastases, Mean number per section [6, 10]: 5.96
- Micrometastases, Mean number per section [6, 10]: 171
- reduction in large metastases ([6]; 150 mg/kg SAHA starting on day 3 post-injection, vs vehicle, P<0.001): 57%
- reduction in micrometastases ([6]; 150 mg/kg SAHA starting on day 3 post-injection, vs vehicle, P=0.017): 28%
- reduction (large metastases) ([6]; 150 mg/kg SAHA starting on day 7 post-injection, vs vehicle, P=0.008): 34%
- reduction in large metastases ([6]; 150 mg/kg SAHA starting on day 14 post-injection, vs vehicle, not statistically significant): 22%
- Motility Data, mean number of cells that migrate per well, 0.5% FCS [3]: 756 ± 56
- Motility Data, mean number of cells that migrate per well, Control [3]: 67 ± 6

SMILES: CC(/C=C/C(=O)NO)=C\[C@@H](C)C(=O)c1ccc(N(C)C)cc1 [Trichostatin (TSA), trichostatin]
- Colonization Data, % Control [1, 7]: 30 ± 3.4 % Control
- Motility Data, mean number of cells that migrate per well, 0.5% FCS [3]: 785 ± 17
- Motility Data, mean number of cells that migrate per well, Control [3]: 108 ± 13

SMILES: CCCC(CCC)C(=O)O [Valporic Acid, valproic acid]
- Colonization Data, % Control [1, 7]: 46 ± 5.3 % Control
- Motility Data, mean number of cells that migrate per well, 0.5% FCS [3]: 755 ± 37
- Motility Data, mean number of cells that migrate per well, Control [3]: 242 ± 55

Source: patent US20100113602A1, “USE OF HISTONE DEACETYLASE INHIBITORS FOR THE TREATMENT OF CENTRAL NERVOUS SYSTEM METASTASES” (The United States of America,as represented by the …, priority 2007, published 2010)
